Source: ChEMBL document CHEMBL3046093, “Effect of doses of fungicides and plant resistance activators on the control of Rhizoctonia foliar blight of soybean, and on Rhizoctonia solani AG1-IA in vitro development” (Crop Prot, 2006)
≈ marks a conversion by molar mass, not a printed value. Calls of active or inactive are those of the source. The calls are words filed in the database; no cut-off is given here.

Columns and labels:
[1] = test system: Rhizoctonia solani; experiment: Antifungal activity against Rhizoctonia solani AG-1 IA assessed as inhibition of mycelial growth at < 10 mg/l relative to control; assay type: functional, organism-based
[2] = test system: Glycine max; experiment: Induction of systemic acquired resistance in Glycine max (soybean) plant infected with Rhizoctonia solani AG-1 IA assessed as reduction in disease severity at 25 mg a.i/l applied as spray on day 5 prior to inoculation measured after 10 days relative to control; assay type: functional, organism-based
[3] = test system: Glycine max; experiment: Induction of systemic acquired resistance in Glycine max (soybean) plant infected with Rhizoctonia solani AG-1 IA assessed as reduction in disease severity at 12.5 mg a.i/l applied as spray on day 10 prior to inoculation measured after 10 days relative to control; assay type: functional; design: scale not given: the % may be the effect or the level left
[4] = test system: Glycine max; experiment: Induction of systemic acquired resistance in Glycine max (soybean) plant infected with Rhizoctonia solani AG-1 IA assessed as reduction in disease severity at 12.5 mg a.i/l applied as spray on day 10 prior to inoculation measured after 5 days relative to control; assay type: functional; design: scale not given: the % may be the effect or the level left
[5] = test system: Rhizoctonia solani; experiment: Antifungal activity against Rhizoctonia solani AG-1 IA assessed as reduction of mycelial growth at 100 mg/l relative to control; assay type: functional; design: scale not given: the % may be the effect or the level left
[6] = test system: Rhizoctonia solani; experiment: Antifungal activity against Rhizoctonia solani AG-1 IA assessed as reduction of mycelial growth at 10 mg/l relative to control; assay type: functional; design: scale not given: the % may be the effect or the level left
[7] = test system: Rhizoctonia solani; experiment: Antifungal activity against Rhizoctonia solani AG-1 IA assessed as mycelial growth at 1 mg/l (reference value: 40 mm); assay type: functional
[8] = test system: Rhizoctonia solani; experiment: Antifungal activity against Rhizoctonia solani AG-1 IA assessed as mycelial growth at 0.1 mg/l (reference value: 40 mm); assay type: functional
[9] = test system: Rhizoctonia solani; experiment: Curative effect against Rhizoctonia solani AG-1 IA infected soybean plant at 50 g a.i/ha applied as spray at V5 to V6 growth stage post inoculation measured after 5 to 10 days under greenhouse condition relative to control; assay type: functional, organism-based
[10] = test system: Rhizoctonia solani; experiment: Protective effect against Rhizoctonia solani AG-1 IA infected soybean plant at 50 g a.i/ha applied as spray at V5 to V6 growth stage prior to inoculation measured after 5 to 10 days under greenhouse condition relative to control; assay type: functional, organism-based
[11] = test system: Rhizoctonia solani; experiment: Fungicidal activity against Rhizoctonia solani AG-1 IA assessed as inhibition of mycelial radial growth; assay type: functional, organism-based
[12] = test system: Rhizoctonia solani; experiment: Fungicidal activity against Rhizoctonia solani AG-1 IA assessed as mycelial radial growth at 100 mg/l (reference value: 40 mm); assay type: functional
[13] = test system: Rhizoctonia solani; experiment: Fungicidal activity against Rhizoctonia solani AG-1 IA assessed as mycelial radial growth at 1 mg/l (reference value: 40 mm); assay type: functional
[14] = test system: Rhizoctonia solani; experiment: Fungicidal activity against Rhizoctonia solani AG-1 IA assessed as mycelial radial growth at 10 mg/l (reference value: 40 mm); assay type: functional
[15] = test system: Rhizoctonia solani; experiment: Fungicidal activity against Rhizoctonia solani AG-1 IA assessed as mycelial radial growth at 0.1 mg/l (reference value: 40 mm); assay type: functional
[16] = test system: Rhizoctonia solani; experiment: Protective effect against Rhizoctonia solani AG-1 IA infected soybean plant at 750 g a.i/ha applied as spray at V5 to V6 growth stage prior to inoculation measured after 5 to 10 days under greenhouse condition relative to control; assay type: functional, organism-based
[17] = test system: Rhizoctonia solani; experiment: Curative effect against Rhizoctonia solani AG-1 IA infected soybean plant at 100 g a.i/ha applied as spray at V5 to V6 growth stage post inoculation measured after 5 to 10 days under greenhouse condition relative to control; assay type: functional, organism-based
[18] = test system: Rhizoctonia solani; experiment: Protective effect against Rhizoctonia solani AG-1 IA infected soybean plant at 100 g a.i/ha applied as spray at V5 to V6 growth stage prior to inoculation measured after 5 to 10 days under greenhouse condition relative to control; assay type: functional, organism-based
[19] = test system: Glycine max; experiment: Phytotoxicity in Glycine max (soybean) plant assessed as dwarfing at 200 g a.i/ha; assay type: organism-based; details: in vivo
[20] = test system: Glycine max; experiment: Phytotoxicity in Glycine max (soybean) plant assessed as leaf burning at 200 g a.i/ha; assay type: organism-based; details: in vivo
[21] = Rhizoctonia solani, AG-1 IA, read-out: EC50

Compound | EC90 ([11]; Rhizoctonia solani, AG-1 IA) | EC50 [11, 21] | Activity [12] | Activity [13] | Activity [14] | Activity [15] | other results
CSC(=O)c1cccc2nnsc12 [ACIBENZOLAR-S-METHYL] |  |  |  |  |  |  | inhibition [1]: inactive; Activity [2]: Active; Activity [3]: 36%; Activity [4]: 28.5%; Activity [5]: 55.2%; Activity [6]: 19%; Activity [7]: 40 mm; Activity [8]: 40 mm
CO/C=C(/C(=O)OC)c1ccccc1Oc1cc(Oc2ccccc2C#N)ncn1 [AZOXYSTROBIN] | 33.1 µg/mL (≈ 82 µM) | 0.668 µg/mL (≈ 1.66 µM) | 10.3 mm | 16 mm | 13.1 mm | 15.2 mm | Activity [9]: Active; Activity [10]: Active
CCCCNC(=O)n1c(NC(=O)OC)nc2ccccc21 [BENOMYL] | 17.4 µg/mL (≈ 60 µM) | 0.352 µg/mL (≈ 1.21 µM) | 0 mm | 9.6 mm | 0 mm | 38.8 mm | 
Clc1ccc(C2(Cn3cncn3)CC(Br)CO2)c(Cl)c1 (configuration not stated) [BROMUCONAZOLE] | 4.81 µg/mL (≈ 12.8 µM) | 0.097 µg/mL (≈ 0.257 µM) | 0.7 mm | 8.2 mm | 3.6 mm | 17.9 mm | 
COC(=O)Nc1nc2ccccc2[nH]1 [CARBENDAZIM] | 8.41 µg/mL (≈ 44 µM) | 0.17 µg/mL (≈ 0.889 µM) | 0 mm | 1.5 mm | 0 mm | 39 mm | 
N#Cc1c(Cl)c(Cl)c(Cl)c(C#N)c1Cl [CHLOROTHALONIL] | 49.4 µg/mL (≈ 186 µM) | 0.998 µg/mL (≈ 3.75 µM) | 4.7 mm | 19.3 mm | 7.6 mm | 30 mm | 
CC1COC(Cn2cncn2)(c2ccc(Oc3ccc(Cl)cc3)cc2Cl)O1 (configuration not stated) [DIFENOCONAZOLE] | 1.13 µg/mL (≈ 2.78 µM) | 0.023 µg/mL (≈ 0.0566 µM) | 1.5 mm | 5 mm | 2.7 mm | 6.6 mm | 
O=[N+]([O-])c1cc(C(F)(F)F)c(Cl)c([N+](=O)[O-])c1Nc1ncc(C(F)(F)F)cc1Cl [FLUAZINAM] | 2.27 µg/mL (≈ 4.89 µM) | 0.046 µg/mL (≈ 0.0989 µM) | 3.4 mm | 5.1 mm | 4.3 mm | 9.1 mm | Activity [16]: Active
N#Cc1c[nH]cc1-c1cccc2c1OC(F)(F)O2 [FLUDIOXONIL] | 0.161 µg/mL (≈ 0.649 µM) | 0.003 µg/mL (≈ 0.0121 µM) | 0 mm | 0 mm | 0 mm | 7.1 mm | 
CC(C)NC(=O)N1CC(=O)N(c2cc(Cl)cc(Cl)c2)C1=O [IPRODIONE] | 11.8 µg/mL (≈ 35.6 µM) | 0.237 µg/mL (≈ 0.718 µM) | 0 mm | 5.5 mm | 0 mm | 39 mm | 
CO/N=C(/C(=O)OC)c1ccccc1COc1ccccc1C [KRESOXIM-METHYL] | 490 µg/mL (≈ 1560 µM) | 9.9 µg/mL (≈ 31.6 µM) | 22 mm | 26.9 mm | 25.1 mm | 26 mm | 
CC12CC1(C)C(=O)N(c1cc(Cl)cc(Cl)c1)C2=O (configuration not stated) [PROCYMIDONE] |  |  | 0.6 mm | 17.6 mm | 1.2 mm | 37.2 mm | 
COC(=O)N(OC)c1ccccc1COc1ccn(-c2ccc(Cl)cc2)n1 [PYRACLOSTROBIN] | 4.67 µg/mL (≈ 12.1 µM) | 0.094 µg/mL (≈ 0.242 µM) | 0 mm | 8.1 mm | 5.4 mm | 17.8 mm | Activity [17]: Active; Activity [18]: Active
O=C(O)c1ccccc1O [SALICYLIC ACID] |  |  |  |  |  |  | inhibition [1]: inactive; Activity [7]: 40 mm; Activity [8]: 40 mm
CC(C)(C)C(O)(CCc1ccc(Cl)cc1)Cn1cncn1 (configuration not stated) [TEBUCONAZOLE] | 2.42 µg/mL (≈ 7.85 µM) | 0.049 µg/mL (≈ 0.159 µM) | 0 mm | 7.6 mm | 3.3 mm | 13.5 mm | Activity [19]: Toxic; Activity [20]: Toxic
c1ccc2[nH]c(-c3cscn3)nc2c1 [THIABENDAZOLE] | 10.9 µg/mL (≈ 54.2 µM) | 0.22 µg/mL (≈ 1.09 µM) | 0 mm | 7.3 mm | 0 mm | 36.1 mm | 
COC(=O)NC(=S)Nc1ccccc1NC(=S)NC(=O)OC [THIOPHANATE METHYL] | 537 µg/mL (≈ 1570 µM) | 10.8 µg/mL (≈ 31.7 µM) | 0.4 mm | 36.7 mm | 20.8 mm | 39.6 mm | 
TRIPHENYLSTANNANOL [listing 1 of 2 here] |  |  |  |  |  |  | EC50 [11]: 0.112 µg/mL
TRIPHENYLSTANNANOL [listing 2 of 2 here] |  |  | 1 mm | 10.6 mm | 6.4 mm | 14.1 mm | EC90 [11]: 5.55 µg/mL
